Measured values taken from patent US20050054587A1, “Novel therapeutic indication of azithromycin for treatment of non-infective inflamatory diseases” (priority 2001, published 2005).

How the values were obtained:
Format in all cases: in vivo, human
[1] = test system: myeloperoxidase (MPO); test: Myeloperoxidase density on digital image of blood smear, healthy volunteer trial; settings: healthy volunteers, azithromycin 3×500 mg, baseline 105 ± 13
Description: (§1) A trial on healthy volunteers was conducted and the influence of azithromycin given in a dosage of 3×500 mg on selected inflammation-relevant parameters was followed up.
(§2) Each subject received two standard 250 mg capsules of azithromycin (Sumamed®, PLIVA Zagreb) on three consecutive days. Immediately before the treatment and 2 h and 30 min, 24 h and 28 days after the third and last dose of azithromycin blood was collected from the cubital vein into EDTA-containing tubes. Aliquots were taken for cell counting, smear preparation, polymorphonuclear cell and serum isolation.
The activity of MPO was assessed from the intensity of staining of neutrophils in blood smears and in cell lysates by ELISA. After fixation in ethanol-formaldehyde, smears were incubated in a substrate solution containing hydrogen peroxide and benzidine (SIGMA). After incubation, smears were counterstained with Giemsa solution. MPO value positivity_of 100 granulocytes was evaluated and scored from 0 to 4+ on the basis of the intensity of the precipitated dye in cytoplasm. Therefore, the value of the score could be from 0 to 400. Normal values of score range (290-390) were taken from this study before azithromycin administration. MPO activity was also evaluated on the digital image of smear taken with a digital camera under the high magnification (×1000) of light microscope. MPO activities in blood smear neutrophils decreased from 2 h and 30 min to 24 h after the last azithromycin dose and returned to baseline after 28 days (Table 1). The change in neutrophil enzyme protein followed the same pattern as that in intracellular enzyme activity, decreasing from 2 h and 30 min to 24 h after the last dose of azithromycin and returning to baseline after 28 days. Both methodological approaches of MPO determination confirmed each other. Degranulation presented with lower MPO neutrophil density determined_with cytochemistry was associated with lower MPO ELISA concentrations in neutrophil lysates.

[2] = test system: N-acetyl-β-D-glucosaminidase (NAGA); test: NAGA activity in neutrophil (PMN) lysates, fluorimetric; settings: healthy volunteers; for NAGA (PMN): azithromycin 3×500 mg, baseline 4.15 ± 01.6
Description: as §1, §2
(§3) Glycosidases are enzymes that catalyse hydrolysis of glycosidic bonds of oligosacharides and other glycosides. They are specific to the glycosidic part of substrate molecule. N-acetyl-β-D-glucosaminidase (NAGA) and β-glucuronidase are such enzymes. They are lysosomal enzymes, both located in azurophilic (primary; peroxidase-positive) granules of neutrophils. Since degranulation of neutrophils is present during inflammation, many authors choose these enzymes as markers of degranulation and for estimation of neutrophil reactivity. The catalytic concentration of both enzymes in serum and in neutrophil lysates was determined using the fluorimetric method described by O'Brien et al. (New Engl. J. Med. (1970) 283: 15-20) for NAGA and Glaser & Sly (J. Lab. Clin. Med. (1973) 82: 969) for β-glucuronidase.

[3] = test system: β-glucuronidase; test: β-glucuronidase activity in neutrophil (PMN) lysates, fluorimetric; settings: healthy volunteers; for β-glucuronidase (PMN): azithromycin 3×500 mg, baseline 4.12 ± 2.7
Description: as §1, §2, §3

[4] = test system: β-glucuronidase; test: β-glucuronidase activity in serum, fluorimetric; settings: healthy volunteers; for β-glucuronidase (serum): azithromycin 3×500 mg, baseline 2.88 ± 0.7
Description: as §1, §2, §3

[5] = test system: granulocytes; test: Apoptotic cells by morphology of blood smears; settings: healthy volunteers, azithromycin 3×500 mg, baseline 0.333 ± 0.655
Description: as §1, §2
Three-day administration of azithromycin exerted a delayed pro-apoptotic effect on granulocytes, as indicated by morphology of blood smears. The number of apoptotic cells counted increased continuously after the three day dosing with azithromycin, achieving statistical significance 28 days after the last dose.

[6] = test system: sVCAM; test: Serum sVCAM concentration, ELISA; settings: healthy volunteers, azithromycin 3×500 mg, baseline 13.59 ± 2.90
Description: as §1, §2
For quantitative determination of serum concentration of human sVCAM, an ELISA kit was used (R&D systems, UK)

[7] = test system: stimulated neutrophils; test: fMLP-stimulated neutrophil oxidative burst, luminol chemiluminescence; settings: healthy volunteers, azithromycin 3×500 mg, baseline 29335 ± 1957
Description: as §1, §2
The generation of reactive oxygen species by activated cells is frequently determined by the measurement of chemiluminescence (CL). The radical species formed react with a photon-producing chemical (e.g. Luminol) and the resulting light emission is measured with a photocell. Chemiluminescence is detectable as a result of the stimulation (e.g. fMLP) of leucocytes and is a measure of their oxidative cytotoxic activity (Allen et al., Biochem. Biophys. Res. Commun. (1972), 47: 679).
The results of the study presented in Table 1 show, that azithromycin inhibits chemiluminescence generated from stimulated neutrophils isolated from the blood of humans treated with azithromycin.

[8] = test system: glutathione reductase; test: Glutathione reductase activity in PMN lysates (BIOXYTECH GR-340); settings: healthy volunteers, azithromycin 3×500 mg, baseline 9.63 ± 1.16
Description: as §1, §2
Glutathione reductase is an ubiquitous enzyme that catalyses the reduction of oxidised glutathione (GSSG) to glutathione (GSH). Glutathione reductase is essential for the glutathione redox cycle that maintains adequate levels of reduced cellular GSH. GSH serves as an antioxidant, reacting with free radicals and organic peroxides, in amino acid transport, and as a substrate for the GSHPx and glutathione S-transferases in the detoxification of organic peroxides and metabolism of xenobiotics. Glutathione reductase was determined using the BIOXYTECH® GR-340™ colorimetric assay for glutathione reductase (OXIS International, Inc.). Briefly, oxidation of NADPH to NADP^+ is catalysed by a limiting concentration of glutathione reductase.

[9] = test system: azurophilic granules of neutrophils; test: Release of glycosidases from azurophilic granules (NAGA and β-glucuronidase); settings: healthy volunteers, 3×500 mg; within 24 hours after the last dose
Description: as §1, §2
as §3, with “β-glucuronidase. […]” for “β-glucuronidase.”

CC[C@H]1OC(=O)[C@H](C)[C@@H](O[C@H]2C[C@@](C)(OC)[C@@H](O)[C@H](C)O2)[C@H](C)[C@@H](O[C@@H]2O[C@H](C)C[C@H](N(C)C)[C@H]2O)[C@](C)(O)C[C@@H](C)CN(C)[C@H](C)[C@@H](O)[C@]1(C)O [azithromycin, 9-deoxo-9-dihydro-9a-methyl-9a-aza-9a-homoerythromycin A]
myeloperoxidase (density) ([1]; 2 h and 30 min after last dose): 130 ± 16 | myeloperoxidase (density) ([1]; 24 hours after last dose): 131 ± 17 | myeloperoxidase (density) ([1]; 28 days after last dose): 115 ± 19 | decrease in NAGA in granulocytes ([2]; 3×500 mg, 2 h and 30 min after the last dose, vs initial values): about 70% | NAGA activity in PMN lower compared to initial values ([2]; 3×500 mg, 24 hours after the last dose): about 40% | NAGA activity in PMN increase from the 2 h and 30 min value ([2]; 3×500 mg, 24 hours later): about 30% | activity of NAGA (PMN) increased over the initial values ([2]; 3×500 mg, after 28 days): 40% | NAGA (PMN) ([2]; 2 h and 30 min after last dose): 1.13 ± 0.72 nmol × 10^−6 cells × min^−1 | NAGA (PMN) ([2]; 24 hours after last dose): 2.62 ± 1.6 nmol × 10^−6 cells × min^−1 | NAGA (PMN) ([2]; 28 days after last dose): 5.95 ± 3.7 nmol × 10^−6 cells × min^−1 | decrease of activities of β-glucuronidase in PMN compared to initial values ([3]; 3×500 mg, 24 hours): about 50% | β-glucuronidase activity in PMN higher compared to the initial values ([3]; 3×500 mg, 28 days later): about 300% | decrease of activities of β-glucuronidase in PMN compared to initial values ([3]; 3×500 mg, after 2 h and 30 min): about 20% | β-glucuronidase (PMN) ([3]; 2 h and 30 min after last dose): 3.21 ± 2.3 nmol × 10^−6 cells × min^−1 | β-glucuronidase (PMN) ([3]; 24 hours after last dose): 1.58 ± 0.4 nmol × 10^−6 cells × min^−1 | β-glucuronidase (PMN) ([3]; 28 days after last dose): 15.37 ± 11.4 nmol × 10^−6 cells × min^−1 | change of activity of β-glucuronidase in serum ([4]; 3×500 mg, during the first 24 hours after the last dose): did not show any changes | β-glucuronidase (serum) ([4]; 2 h and 30 min after last dose): 3.01 ± 0.6 µmol/L/min | β-glucuronidase (serum) ([4]; 24 hours after last dose): 2.95 ± 0.5 µmol/L/min | β-glucuronidase (serum) ([4]; 28 days after last dose): 3.93 ± 1.2 µmol/L/min | APOPTOSIS (WBC) ([5]; 2 h and 30 min after last dose): 0.833 ± 1.029 apoptopic cells/1000 WBC | APOPTOSIS (WBC) ([5]; 24 hours after last dose): 1.417 ± 1.240 apoptopic cells/1000 WBC | APOPTOSIS (WBC) ([5]; 28 days after last dose): 2.583 ± 2.02 apoptopic cells/1000 WBC | sV-CAM (serum) ([6]; 2 h and 30 min after last dose): 12.21 ± 4.12 ng/mL | sV-CAM (serum) ([6]; 24 hours after last dose): 10.29 ± 2.12 ng/mL | sV-CAM (serum) ([6]; 28 days after last dose): 10.74 ± 2.05 ng/mL | OXIDATIVE BURST (PMN) fMLP-luminol ([7]; 2 h and 30 min after last dose): 14774 ± 1175 A.U. | OXIDATIVE BURST (PMN) fMLP-luminol ([7]; 24 hours after last dose): 5053 ± 3804 A.U. | OXIDATIVE BURST (PMN) fMLP-luminol ([7]; 28 days after last dose): 9879 ± 13880 A.U. | GLUTATHION REDUCTASE (PMN) ([8]; 2 h and 30 min after last dose): 7.39 ± 1.23 mU/10^6PMN | GLUTATHION REDUCTASE (PMN) ([8]; 24 hours after last dose): 7.91 ± 0.87 mU/10^6PMN | GLUTATHION REDUCTASE (PMN) ([8]; 28 days after last dose): 11.27 ± 2.24 mU/10^6PMN | release of enzymes from azurophilic granules [9]: 40-50%
